Source: patent US10239843B2 (CANCER RESEARCH TECHNOLOGY LIMITED, priority 2014, dated 2019)
Like-named read-outs stand apart in the source and are kept apart here.

Key:
[1] = molecular target: Human Full Length PARG (Homo sapiens (Human), UniProt Q86W56); test: PARG enzyme assay (TR-FRET); format: biochemical; conditions: read-out: PARG Biochem IC50 Geomean
[2] = system: PARG in HeLa cell line; test: PARG cell assay (PAR chain immunofluorescence after MMS); format: cell-based; conditions: HeLa cells, MMS 50 μg/mL, read-out: PARG Cell IC50 Geomean
Description: This method is based on the detection of endogenous levels of poly (ADP) ribose chains present in the nucleus of HeLa cell line using indirect immunofluorescence. MMS stimulation increases PAR chains for up to 25 mins. After that point, PARG is active and breaks down the PAR chains, until by one hour after stimulation no PAR chains are detectable. Inhibition of PARG maintains PAR chains.
Briefly, following compound treatment and treatment with the DNA damaging agent methylmethanesulfonate (MMS), the cell monolayer is fixed, then permeabilised and incubated with a mouse monoclonal antibody raised against multimers of poly(ADP) ribose.
At the end of the 1 h dosing period, MMS was added to duplicates at a final concentration of 50 μg/mL, for a further hour.
Media was tipped off and the cells fixed with 50 μL ice-cold 95% MetOH/PBS for 15 mins at −20° C. Following a PBS wash, 50 μL PBS/0.1% Triton was added to the cells for 20 mins. Following another PBS wash, anti-PAR antibody (Calbiochem AM80) was diluted 1:4000 in a buffer (PBS+0.5% FBS+0.05% Tween20) and added to the cells and incubated overnight at 4° C.
Cells were washed three times with PBS and the plate sealed with a light-proof seal.

Sequence of Human Full Length PARG (Q86W56 whole entry): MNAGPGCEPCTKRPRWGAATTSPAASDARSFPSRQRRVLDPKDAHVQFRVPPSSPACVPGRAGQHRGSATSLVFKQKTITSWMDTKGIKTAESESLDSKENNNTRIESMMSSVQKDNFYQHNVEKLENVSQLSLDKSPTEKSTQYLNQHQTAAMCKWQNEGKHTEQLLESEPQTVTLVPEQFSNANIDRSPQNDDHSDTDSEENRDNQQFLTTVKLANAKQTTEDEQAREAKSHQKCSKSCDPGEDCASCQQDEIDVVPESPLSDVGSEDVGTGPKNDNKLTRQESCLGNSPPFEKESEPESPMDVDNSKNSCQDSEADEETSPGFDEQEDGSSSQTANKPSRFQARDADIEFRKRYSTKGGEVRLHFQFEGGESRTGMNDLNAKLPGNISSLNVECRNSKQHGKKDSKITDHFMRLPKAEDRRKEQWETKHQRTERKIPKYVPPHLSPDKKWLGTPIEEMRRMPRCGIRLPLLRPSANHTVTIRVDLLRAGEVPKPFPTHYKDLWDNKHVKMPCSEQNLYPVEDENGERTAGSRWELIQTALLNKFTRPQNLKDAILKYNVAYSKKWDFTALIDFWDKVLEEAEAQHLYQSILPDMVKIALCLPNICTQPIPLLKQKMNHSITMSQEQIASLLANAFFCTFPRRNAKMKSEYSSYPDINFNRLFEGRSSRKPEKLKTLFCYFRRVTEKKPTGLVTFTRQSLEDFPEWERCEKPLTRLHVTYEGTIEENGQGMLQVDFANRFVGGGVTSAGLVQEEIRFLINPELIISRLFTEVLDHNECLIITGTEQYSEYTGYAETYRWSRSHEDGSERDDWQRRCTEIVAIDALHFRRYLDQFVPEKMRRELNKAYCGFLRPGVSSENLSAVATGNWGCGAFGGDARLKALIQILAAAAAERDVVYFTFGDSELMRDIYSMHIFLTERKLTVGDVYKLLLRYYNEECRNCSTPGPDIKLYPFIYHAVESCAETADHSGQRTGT

IC50 [1] [nM]	IC50 ([2]; Homo sapiens) [nM]	IC50 [2] [nM]	SMILES
376	2020		Cc1cc(Cn2nc(NCCN(C)C)c3ccc(S(=O)(=O)NC4(C)CC4)cc3c2=O)on1 [Example 253]
103	98		Cn1cc(Cn2c(=O)c3cc(S(=O)(=O)NC4(C)CC4)ccc3n(CC3CCCCO3)c2=O)cn1 (stereo not shown) [Example 257]
169	131		Cn1cc(Cn2c(=O)c3cc(S(=O)(=O)NC4(C)CC4)ccc3n(CC3CCCO3)c2=O)cn1 (stereo not shown) [Example 258]
108	108		Cn1cc(Cn2c(=O)c3cc(S(=O)(=O)NC4(C)CC4)ccc3n(CC3CCOC3)c2=O)cn1 (stereo not shown) [Example 259]
256	187		Cn1cc(Cn2c(=O)c3cc(S(=O)(=O)NC4(C)CC4)ccc3n(CCCOC(F)(F)F)c2=O)cn1 [Example 264]
418	6480		CN(C)C(=O)Cn1c(=O)n(Cc2cnn(C)c2)c(=O)c2cc(S(=O)(=O)NC3(C)CC3)ccc21 [Example 265]
296		214	Cc1cc(Cn2c(=O)c3cc(S(=O)(=O)NC4(C)CC4)ccc3n(CC3CCCCO3)c2=O)on1 (stereo not shown) [Example 266]
234		248	Cc1cc(Cn2c(=O)c3cc(S(=O)(=O)NC4(C)CC4)ccc3n(CC3CCCO3)c2=O)on1 (stereo not shown) [Example 267]
111	217		Cc1cc(Cn2c(=O)c3cc(S(=O)(=O)NC4(C)CC4)ccc3n(CC3CCOC3)c2=O)on1 (stereo not shown) [Example 268]
57	98		Cn1cc(Cn2c(=O)c3cc(S(=O)(=O)NC4(C)CC4)ccc3n(CC3CCOCC3)c2=O)cn1 [Example 269]
128	102		COCCn1c(=O)n(Cc2cnn(C)c2)c(=O)c2cc(S(=O)(=O)NC3(C)CC3)ccc21 [Example 270]
97		161	Cn1cc(Cn2c(=O)c3cc(S(=O)(=O)NC4(C)CC4)ccc3n(CCN3CCOCC3)c2=O)cn1 [Example 271]
317	467		Cn1cc(Cn2c(=O)c3cc(S(=O)(=O)NC4(C)CC4)ccc3n(CCN3CCCC3)c2=O)cn1 [Example 272]
291	14500		Cn1cc(Cn2c(=O)c3cc(S(=O)(=O)NC4(C)CC4)ccc3n(CCC(N)=O)c2=O)cn1 [Example 273]
237		166	COCCn1c(=O)n(Cc2cc(C)no2)c(=O)c2cc(S(=O)(=O)NC3(C)CC3)ccc21 [Example 274]
333	304		Cc1cc(Cn2c(=O)c3cc(S(=O)(=O)NC4(C)CC4)ccc3n(CC3CCCCN3C)c2=O)on1 (stereo not shown) [Example 275]
255	536		Cc1cc(Cn2c(=O)c3cc(S(=O)(=O)NC4(C)CC4)ccc3n(CCN3CCOCC3)c2=O)on1 [Example 276]
432	5760		Cc1cc(Cn2c(=O)c3cc(S(=O)(=O)NC4(C)CC4)ccc3n(CCC(N)=O)c2=O)on1 [Example 277]
168	51		Cn1cc(Cn2c(=O)c3cc(S(=O)(=O)NC4(C)CC4)ccc3n(CC3CCCC3)c2=O)cn1 [Example 279]

IC50 [1] [nM]	IC50 ([2]; Homo sapiens) [nM]	IC50 [2] [nM]	SMILES
177	103		Cn1cc(Cn2c(=O)c3cc(S(=O)(=O)NC4(C)CC4)ccc3n(CC3CCCCC3)c2=O)cn1 [Example 280]
76	44		Cn1cc(Cn2c(=O)c3cc(S(=O)(=O)NC4(C)CC4)ccc3n(CC3CCC3)c2=O)cn1 [Example 281]
175		79	Cc1cc(Cn2c(=O)c3cc(S(=O)(=O)NC4(C)CC4)ccc3n(CC3CCC3)c2=O)on1 [Example 288]
280		129	Cc1cc(Cn2c(=O)c3cc(S(=O)(=O)NC4(C)CC4)ccc3n(CC3CCCC3)c2=O)on1 [Example 289]
497	260		Cc1cc(Cn2c(=O)c3cc(S(=O)(=O)NC4(C)CC4)ccc3n(CC3CCCCC3)c2=O)on1 [Example 290]
341	221		CC(C)n1c(=O)n(Cc2cnn(C)c2)c(=O)c2cc(S(=O)(=O)NC3(C)CC3)ccc21 [Example 292]
47	226		Cn1cc(Cn2c(=O)c3cc(S(=O)(=O)NC4(C)CC4)ccc3n(CC3(C)COC3)c2=O)cn1 [Example 294]
70	85		CC(C)Cn1c(=O)n(Cc2cnn(C)c2)c(=O)c2cc(S(=O)(=O)NC3(C)CC3)ccc21 [Example 295]
73	70		Cn1cc(Cn2c(=O)c3cc(S(=O)(=O)NC4(C)CC4)ccc3n(CCC3CC3)c2=O)cn1 [Example 296]
69	272		Cn1cc(Cn2c(=O)c3cc(S(=O)(=O)NC4(C)CC4)ccc3n(CC3COC3)c2=O)cn1 [Example 297]
329	113		CCn1c(=O)n(Cc2cc(C)no2)c(=O)c2cc(S(=O)(=O)NC3(C)CC3)ccc21 [Example 304]
340		323	Cc1cc(Cn2c(=O)c3cc(S(=O)(=O)NC4(C)CC4)ccc3n(CC3COC3)c2=O)on1 [Example 305]
367		471	Cc1cc(Cn2nc(NC3CCOCC3)c3ccc(S(=O)(=O)NC4(C)CC4)cc3c2=O)on1 [Example 306]
307	455		Cc1cc(Cn2nc(C(C)C)c3ccc(S(=O)(=O)NC4(C)CC4)cc3c2=O)on1 [Example 310]
349		420	Cc1cc(Cn2nc(C3CC3)c3ccc(S(=O)(=O)NC4(C)CC4)cc3c2=O)on1 [Example 313]
487		912	Cc1cc(Cn2nc(OC3COC3)c3ccc(S(=O)(=O)NC4(C)CC4)cc3c2=O)on1 [Example 317]
352	319		Cc1cc(Cn2nc(CC3CC3)c3ccc(S(=O)(=O)NC4(C)CC4)cc3c2=O)on1 [Example 318]
138	195		Cc1cc(Cn2c(=O)c3cc(S(=O)(=O)NC4(C)CC4)ccc3n(CC3CCOCC3)c2=O)on1 [Example 321]
417	736		CC(=O)Cn1c(=O)n(Cc2cc(C)no2)c(=O)c2cc(S(=O)(=O)NC3(C)CC3)ccc21 [Example 323]

IC50 [1] [nM]	IC50 ([2]; Homo sapiens) [nM]	IC50 [2] [nM]	SMILES
331	272		Cc1cc(Cn2c(=O)c3cc(S(=O)(=O)NC4(C)CC4)ccc3n(CC(F)F)c2=O)on1 [Example 324]
431	320		Cc1cc(Cn2c(=O)c3cc(S(=O)(=O)NC4(C)CC4)ccc3n(CC(F)(F)F)c2=O)on1 [Example 325]
48	116		Cn1cc(Cn2c(=O)c3cc(S(=O)(=O)NC4(C)CC4)ccc3n(Cc3cnn(C)c3)c2=O)cn1 [Example 328]
114	129		Cn1cc(Cn2c(=O)c3cc(S(=O)(=O)NC4(C)CC4)ccc3n(CC3(C)CC3(F)F)c2=O)cn1 (stereo not shown) [Example 329]
96	164		Cc1cc(Cn2c(=O)c3cc(S(=O)(=O)NC4(C)CC4)ccc3n(Cc3cnn(C)c3)c2=O)on1 [Example 330]
356	462		CCOC(=O)Cn1c(=O)n(Cc2cc(C)no2)c(=O)c2cc(S(=O)(=O)NC3(C)CC3)ccc21 [Example 332]
401		17900	Cn1cc(Cn2c(=O)[nH]c3ccc(S(=O)(=O)NC4(C#N)CC4)cc3c2=O)cn1 [Example 336, N-(1-Cyanocyclopropyl)-3-[(1-methylpyrazol-4-yl)methyl]-2,4-dioxo-1H-quinazoline-6-sulfonamide]
417	772		Cc1cc(Cn2c(=O)c3cc(S(=O)(=O)NC4(C)CC4)ccc3n(CCO)c2=O)on1 [Example 337]
479	487		Cc1cc(Cn2c(=O)c3cc(S(=O)(=O)NC4(C)CC4)ccc3n(C3COC3)c2=O)on1 [Example 339]
389	3480		Cc1cc(Cn2c(=O)c3cc(S(=O)(=O)NC4(C)CC4)ccc3n(CC3(CO)COC3)c2=O)on1 [Example 340]
307	853		Cc1cc(Cn2c(=O)c3cc(S(=O)(=O)NC4(C)CC4)ccc3n(CCCN3CCN(C)CC3)c2=O)on1 [Example 342]
195	351		Cn1cc(Cn2c(=O)c3cc(S(=O)(=O)NC4(C)CC4)ccc3n(CC3CCO3)c2=O)cn1 (stereo not shown) [Example 343]
491	2110		Cn1cc(Cn2c(=O)c3cc(S(=O)(=O)NC4(C#N)CC4)ccc3n(C)c2=O)cn1 [Example 344]
61	2880		Cc1cc(Cn2c(=O)n(Cc3cnn(C)c3)c(=O)c3cc(S(=O)(=O)NC4(C#N)CC4)ccc32)n(C)n1 [Example 345]
47	390		Cn1cc(Cn2c(=O)c3cc(S(=O)(=O)NC4(C#N)CC4)ccc3n(CC3CC3)c2=O)cn1 [Example 346]
210	916		CCn1c(=O)n(Cc2cnn(C)c2)c(=O)c2cc(S(=O)(=O)NC3(C#N)CC3)ccc21 [Example 347]
101	328		Cn1cc(Cn2c(=O)c3cc(S(=O)(=O)NC4(C)CC4)ccc3n(CC3(F)COC3)c2=O)cn1 [Example 348]
252	632		Cc1cc(Cn2c(=O)c3cc(S(=O)(=O)NC4(C)CC4)ccc3n(CC3CCO3)c2=O)on1 (stereo not shown) [Example 349]
